A short description of series [1]: Serum NAG and glucosamine levels after oral ingestion of NAG or poly-NAG in healthy subjects (crossover, HPLC analysis). The series is classed as in vivo, human. The text has this:
Ten normal, healthy subjects (five men and five women ages 36-50) were randomly divided into two groups (designated as A and B). On Day-1 a fasting blood sample was collected from each patient. Following this, group A orally ingested 1.0 gram of NAG and group B ingested 1.0 gram of poly-NAG. On Day-2 the subjects again ingested one gram of the appropriate test substance before breakfast. On the third day a fasting blood sample was taken at time T=0. Subsequently, they consumed the final 1.0 gram of the appropriate test substance, and nonfasting blood samples were taken at 1, 2, 4, and 8 hours. Fasting blood samples were taken at 24 and 48 hours thereafter. […] On Day-8, after a fasting blood sampling, the groups were switched (i.e., group A took poly-NAG while group B consumed NAG) and the same procedure as shown above was repeated.
The data were analyzed using analytical HPLC procedure based on published methods for amino sugar analysis. The chromatographic system consisted of a Hewlett-Packard 1090M Liquid Chromatograph/Work Station equipped with a Diode Array Detector. Separation was by isocratic elution at 40° C. from a 300×7.8 mm Rezex Organic Acid Column (Phenomenex; N>75000 P/m) with 0.005N H2SO4 at a flow rate of 0.6 ml/min. The analytical conditions had been developed for resolution of the aminosugar/acetylated aminosugar components of physiological fluids, and the diode array detector was optimized at 193 nm for maximum sensitivity and minimum interference. The system was calibrated with standards before, during and after the study to assure there were no significant changes due to wear and tear or aging of the system. The chromatographic data were transferred to a spreadsheet and statistically tested with ANOVA (Single Factor, Two-Factor without Replication, Two-Factor with Replication) and paired T-tests.

The conditions of series [2]: human trials, cited from earlier work.
For series [3] the following is noted: cited from earlier work.

For `CC(=O)N[C@H]1C(O)O[C@H](CO)[C@@H](O)[C@@H]1O` (stereo partly drawn) [NAG, N-acetyl-D-glucosamine], the “subjects showing decreased serum NAG levels” value in series [1] (24 hours following cessation of ingestion, both groups together (4/20)) was determined as 20%. Besides, the “concentration of NAG in serum, Avg” value in series [1] (Pre (pretest fasting sample before ingestion), 1.0 g per day oral) is reported as 10.3 nanomoles per ml of serum. Besides, the “subjects with increased serum NAG concentrations” value in series [1] (T=0 compared with pretest values, fraction of 20 subject-periods) is given as 6/20. In addition, in series [1] (T=1 hour compared with pretest value, fraction of 20 subject-periods), the “subjects showing an increase in serum NAG” value is recorded as 8/20. The molecule also had a concentration at 0 h in series [1] (both sexes, human, serum, T0, third day fasting, before final 1.0 g oral dose) of 15.4 µM. The molecule further registered a concentration at 1 h in series [1] (both sexes, human, serum, T1, 1 hour after final 1.0 g oral dose, nonfasting) of 18.2 µM. The same molecule returned a concentration at 2 h in series [1] (both sexes, human, serum, T2, 2 hours after final 1.0 g oral dose, nonfasting) of 21 µM. Further, in series [1] (both sexes, human, serum, T4, 4 hours after final 1.0 g oral dose, nonfasting), the concentration at 4 h amounted to 22.9 µM. For the same molecule, in series [1] (both sexes, human, serum, T8, 8 hours after final 1.0 g oral dose, nonfasting), the concentration at 8 h was 14.6 µM. Also, the concentration at 24 h in series [1] (both sexes, human, serum, T24, 24 hours after final 1.0 g oral dose, fasting) amounted to 13.6 µM. In series [1] (both sexes, human, serum, T48, 48 hours after final 1.0 g oral dose, fasting), this molecule came in with a concentration at 48 h of 12.7 µM.
For `N[C@H]1C(O)O[C@H](CO)[C@@H](O)[C@@H]1O.O=S(=O)(O)O` (stereo partly shown) [glucosamine sulfate], the “effect on symptoms of osteoarthritis” value in series [2] (pain, joint tenderness, swelling and mobility) was “significant improvement in the symptoms of pain, joint tenderness, swelling and mobility”. Besides, the “adverse side effects or undesirable drug interactions” value in series [2] was “not to have any adverse side effects or undesirable interactions with other drugs”.
For `N[C@H]1C(O)O[C@H](CO)[C@@H](O)[C@@H]1O` (stereo partly shown) [glucosamine], the “excreted in the feces” value in series [3] (dog, in vivo) is recorded as 1.7%. For the same molecule, the “time of peak protein incorporation of glucosamine” value in series [3] (incorporation into alpha and beta globulins) was 8 h. The excreted in urine in series [3] (mainly as glucosamine) is 34%.

The values above are taken from patent US20010014671A1, “Treatment of osteoarthritis by administering poly-N-acetyl-D-glucosamine” (Lescarden, Inc., priority 1996, published 2001).
